“Also recorded” adds a separate entry of the source. Where two headings read alike, the source gives them in different places.
Columns and labels:
[1] = tested on: sham-feeding rat; assay: Sucrose ingestion (sham intake) in the sham-feeding rat; type: in vivo; details: 20% sucrose, 30-min test, N=6; for effect on volume of sucrose solution ingested (in words): (+)-SKF 10,047 5 mg/kg i.p., BMY 14802 4 mg/kg i.p., haloperidol 0.1 mg/kg i.p.
Description: As a non-limiting example, distinguishing between sigma receptor modulation and dopamine modulation may be accomplished using a D2 distinguishing assay, such as a behavioral assay system which discriminates the effects of dopamine D2 antagonists from sigma modulators or agents. A non-limiting example of a D2 /sigma distinguishing assay system involves quantification of ingestion of sucrose in a sham-feeding rat, where dopamine plays a critical role in the mediation of this behavior. See Schneider, L. H. et al. Eur. J. Pharmacol. 186:61-70 (1990) which is entirely incorporated herein by reference. […] The principal factor which compels the animal to maintain ingestion is the sweet taste of the sucrose solution; the involvement of the ascending mesolimbic dopamine system in this effect appears to be manifested as a modulation of the hedonic potency of the orosensory event (sweet taste). […] Neurosci. Abstr. 16:1028 (1990) which references are incorporated entirely herein by reference.
Differentiation of sigma and dopamine activities are provided by a behavioral assay system which effectively discriminates the effects of dopamine D-2 antagonists from sigma agents. The assay system involves quantification of ingestion of sucrose in the sham-feeding rat.

[2] = tested on: sham-feeding rat; assay: Microstructural analysis of licking/ingestive behavior in the sham-feeding rat; type: in vivo; details: SKF 5 mg/kg, BMY 4 mg/kg, HAL 0.1 mg/kg, i.p.; for interlick intervals (in words): range 0-250 msec
Description: Motoric components of the ingestive behavior may be differentiated from the "rewarding", sensory components by the use of microstructural analysis, a computer-controlled device which records the time at which each animal licks, to the nearest fractional millisecond. Analysis of licking and ingestive behavior in bursts is monitored through a fixed time test such that sigma agents may influence ingestive behavior either through the motor output systems or through nigrostriatal dopamine systems. The role for sigma sites in motor output systems include those muscles which are associated with licking, biting, and swallowing.
This consists of the use of a computer-controlled device which records the time at which each animal licks, to the nearest fractional millisecond. This then allows analysis of licking and ingestive behavior in bursts through a 30-minute test.
Using this behavioral assay system, with peripheral administration of the various selective drugs, rats (N=6) received 20% sucrose during a 30-min test, such that there was no effect of the sigma agents (+)-SKF 10,047 (5 mg/kg, i.p.; SKF) or BMY 14802 (4 mg/kg, i.p.; BMY) depending upon the volume of the sucrose solution which was ingested. […] These changes are attributed to a shift in the mean of the distribution histogram of interlick intervals. […] The shift in interlick interval distribution is expected to arise from occupancy of hindbrain sigma sites, possibly in the reticular formation, which are involved in definition of the lick rate in the rat.

[3] = tested on: sigma receptor; details: cited from earlier work
[4] = tested on: sigma versus dopamine D2 receptors; details: cited from earlier work
[5] = tested on: sigma receptors; assay: Sigma binding assay, (3H)-haloperidol, bovine cerebellar homogenates; details: bovine cerebellar preparation
Protocol: (§1) As a non-limiting subexample, a sigma binding assay can use cerebellar tissue extracts to bind sigma receptor selectively by (^3 H)-halopendol with spiperone used to inhibit-binding to D2 receptors. […] These ligands are incubated at 30° C. with tissue (rat liver, rat cerebellum) homogenates for a 45 min period. In these assays, tissue concentrations used a range from 0.1-0.5 mg protein/mL, and radioligand concentrations range from 50 pM-10 μM. […] Filters are dried and counted for (^3 H)-activity in a liquid scintillation counter. The amount of ligand bound to the tissue receptor is measured with the aid of computer analysis of the data, using the LIGAND or an equivalent algorithm.
(§2) Radioligand binding assays were performed on the tricyclic (cis-cis) hexahydrojulolidine (HHJ), the parent tetracyclic (cis,cis) OHNQ (I-1) and 9-methoxy OHNQ (I-4), for binding to D2 and sigma receptors synthesized according to Example 1. The D2 assays were performed on bovine striatal homogenates using 0.50 nM (^3 H)-spiperone in the presence of 250 μM ketanserin (to inhibit association with some 5-HT receptors and spirodecanone sites), with non-specific binding defined using 10 μM sulpiride according to known methods. The sigma binding assay was performed on bovine and rat cerebellar homogenates using 2.0 nM (^3 H)-haloperidol in the presence of 25 nM spiperone (to inhibit association with D2 dopamine receptors); non-specific binding was defined in the presence of 1 μM unlabeled haloperidol. […] Sigma receptor assays on rat brain preparations using (^3 H)-DTG and (^3 H)-Pentazocine as the radiolabels are performed with good results. […]
(§3) Ten to twenty point assays are performed in triplicate using either 4 nM (^3 H)-haloperidol, 4 nM (^3 H)-DTG or 0.4 nM (^3 H)-DTG (New England Nuclear) as radiolabels, on rat liver, rat cerebellar or bovine cerebellar homogenates. […] Radioactivity is counted the following day at 40% efficiency.

[6] = tested on: sigma receptors; assay: Sigma binding assay, (3H)-haloperidol, rat cerebellar homogenates; details: for binding to sigma sites (in words): rat cerebellar preparation
Protocol: as §1
(§4) Radioligand binding assays were performed on the tricyclic (cis-cis) hexahydrojulolidine (HHJ), the parent tetracyclic (cis,cis) OHNQ (I-1) and 9-methoxy OHNQ (I-4), for binding to D2 and sigma receptors synthesized according to Example 1. The D2 assays were performed on bovine striatal homogenates using 0.50 nM (^3 H)-spiperone in the presence of 250 μM ketanserin (to inhibit association with some 5-HT receptors and spirodecanone sites), with non-specific binding defined using 10 μM sulpiride according to known methods. The sigma binding assay was performed on bovine and rat cerebellar homogenates using 2.0 nM (^3 H)-haloperidol in the presence of 25 nM spiperone (to inhibit association with D2 dopamine receptors); non-specific binding was defined in the presence of 1 μM unlabeled haloperidol. […] Sigma receptor assays on rat brain preparations using (^3 H)-DTG and (^3 H)-Pentazocine as the radiolabels are performed with good results. […] Additional assays have been performed for D-1 activity (using (^3 H)-SCH23390), and for α-1 and α-2 activity as well as several 5-HT subtypes (5-HT-1-a, 5-HT-3, 5-HT uptake site).
Crude tissue homogenates are prepared by the following general procedure. Frozen tissue is thawed and homogenized in a buffer containing 50 mM Tris-HCI, 120 mM NaCl, 1 mM MgCl2, and 5 mM KCl, pH 8.0. This tissue suspension is sedimented at 100,000×g for a 30 min. period. Following centrifugation, the supernatant is discarded and the resultant pellet is resuspended in the same buffer solution, and respun as previously described.
Ten to twenty point assays are performed in triplicate using either 4 nM (^3 H)-haloperidol, 4 nM (^3 H)-DTG or 0.4 nM (^3 H)-DTG (New England Nuclear) as radiolabels, on rat liver, rat cerebellar or bovine cerebellar homogenates. The concentration of the displacing agent generally ranges between 0.2 nM and 64 μM in a final volume of 2 mL. Non-specific binding is defined by the presence of 1 μM unlabeled haloperidol. Spiperone at a concentration of 25 nM is added in the assays performed with (^3 H)-haloperidol in order to block D2 receptor sites. The buffer system employed is as in the tissue preparation as presented herein. Incubation is carried out for one hour at room temperature after addition of the tissue. Samples are rapidly filtered through Schleicher and Schuell #32 glass filters presoaked with 0.1% polyethyleneimine, on a 24-position cell harvester (Brandel). The filters are washed with ice-cold 10 mM Tris buffer, pH 7.7, and then placed in 2 mL of scintillation fluid. Radioactivity is counted the following day at 40% efficiency.

[7] = tested on: PCP site; details: cited from earlier work
[8] = tested on: D2 receptor; assay: Dopamine D2 binding assay, (3H)-spiperone, bovine striatal homogenates
Protocol: as §4

[9] = tested on: 5-HT-2 receptor; assay: 5-HT-2 receptor activity assay; type: binding
[10] = tested on: drug-resistant patients; details: human, in vivo; cited from earlier work
[11] = tested on: dopamine D2 receptor; details: cited from earlier work
[12] = target: sigma receptors; assay: Sigma receptor binding, rat liver preparations
Protocol: as §1, §2, §3

[13] = solubilized rat liver preparations

C=CCN1CCC2(C)c3cc(O)ccc3CC1C2C (single isomer, unassigned; (+)) [(+)-SKF 10,047]
effect on volume of sucrose solution ingested (in words) [1]: no effect
mean lick cluster size (in words) [2]: not SKF or HAL
interlick intervals (in words) [2]: not SKF or HAL
enantioselectivity for sigma sites (in words) ([3]; (+)-NANM versus (-)-NANM): more potent than (-)-NANM

CCCN1CCCC(c2cccc(O)c2)C1 (stereo not drawn) [3-PPP]
affinity for sigma versus dopaminergic receptors (in words) [4]: higher affinity for sigma receptor sites than for dopaminergic receptors

COc1ccc2c(c1)C1CCCN3CCCC(C2)C13 (stereo not drawn) [11-methoxy OHNQ]
binding to sigma sites (in words) [5]: weak sigma binding
IC50 ([5]; 2.0 nM (3H)-haloperidol, 25 nM spiperone): 1500 nM
sigma potency compared with reference compounds (in words) ([6]; rat cerebellar membranes): on the order of that observed for (+)-NaMM, (+)-3-PPP, as well as cis-fused tricyclic octahydrobenzo-(f) quinolines with hydroxyl groups on the aromatic ring
IC50 ([6]; rat cerebellar membranes, 2.0 nM (3H)-haloperidol, 25 nM spiperone): 300 nM
binding to sigma sites (in words) [6]: considerably stronger binding
sigma binding, rat versus bovine (in words) ([6]; rat cerebellar vs bovine cerebellar receptors): bound more specifically and with a higher affinity to rat cerebellar sigma receptors, than to bovine cerebellar receptors

CCCN1CCC[C@H](c2cccc(O)c2)C1 [(+)-(^3 H)-3-PPP, (+)-(^3 H)-3-(+)-3-(3-hydroxyphenyl) N-(1-propyl)piperidine]
affinity for sigma receptors (in words) [3]: labeled with high affinity

C=CCN1CCC2(C)c3cc(O)ccc3CC1C2C (stereo not drawn) [(^3 H)-NANM, N-allylnormetazocine]
affinity for sigma receptors (in words) [3]: high affinity
affinity toward PCP sites (in words) [7]: low affinity

c1ccc(C2(N3CCCCC3)CCCCC2)cc1 [(^3 H)-PCP, phencyclidine]
affinity for sigma receptors (in words) [3]: not labeled

c1csc(C2(N3CCCCC3)CCCCC2)c1 [(^3 H)-TCP, (^3 H)-1-((2-thienyl)cyclohexyl)piperidine]
affinity for sigma receptors (in words) [3]: not labeled

COc1ccc2c(c1)C1CCCN3CCCC(C2)C13 (stereo not drawn) [(trans,trans) 11-methoxy OHNQ]
activity at D-2 receptor sites (in words) [8]: modest but selective activity
activity at 5-HT-2 receptor sites (in words) [9]: modest but selective activity

Cl.N#Cc1cccnc1N1CCN(CCCCN2C(=O)SC3(CCCC3)C2=O)CC1 [BMY 13980]
affinity for sigma receptors (in words) [3]: moderate to high affinity

OC(CCCN1CCN(c2ncc(F)cn2)CC1)c1ccc(F)cc1 (stereo not drawn) [BMY 14802]
effect on volume of sucrose solution ingested (in words) [1]: no effect
mean lick cluster size (in words) [2]: smaller mean lick cluster size
interlick intervals (in words) [2]: significant decrease of interlick intervals
affinity for sigma receptors (in words) [3]: moderate to high affinity
affinity toward PCP sites (in words) [7]: little or no affinity
selectivity for sigma versus dopamine D2 receptors [4]: 10 to 15 fold

C1CC2CCCN3CCCC(C1)C23 (stereo not drawn) [HHJ, hexahydrojulolidine]
binding to sigma sites (in words) [5]: did not exhibit binding
binding to sigma sites (in words) [6]: did not exhibit binding

Cl.Fc1ccc2[nH]c3c(c2c1)CN(CCCc1cccnc1)CC3 [WY 47,384]
affinity for sigma receptors (in words) [3]: moderate to high affinity

O=C1CC2(CCCC2)CC(=O)N1CCCCN1CCN(c2ncccn2)CC1 [buspirone]
affinity for sigma receptors (in words) [3]: high affinity

CN1CCN(C2=Nc3cc(Cl)ccc3Nc3ccccc32)CC1 [clozapine]
agranulocytosis / side effects (in words) [10]: irreversible, potentially fatal agranulocytosis in a minority of patients; also recorded: less motor side effects; also recorded: severe and fatal agranulocytosis

O=C(CCCN1CCC(O)(c2ccc(Cl)cc2)CC1)c1ccc(F)cc1 [haloperidol]
effect on volume of sucrose solution ingested (in words) [1]: highly significant reduction
sham intake of the sucrose solution ([1]; haloperidol 0.1 mg/kg, i.p., vs 33.7±2.7 ml, p<0.001): 15 ± 2.7 mL
mean lick cluster size (in words) [2]: not SKF or HAL
interlick intervals (in words) [2]: not SKF or HAL
affinity for sigma receptors (in words) [3]: high affinity
affinity for sigma receptors (in words) ([3]; listed as (^3 H)-haloperidol): labeled with high affinity
affinity for sigma receptors (in words) ([3]; listed as Haloperidol): very high affinity
activity at dopamine D2 receptor (in words) [11]: high affinity

C=CCN1CC[C@]23c4c5ccc(O)c4O[C@H]2C(=O)CC[C@@]3(O)[C@H]1C5 [naloxone]
block of (3H)-NANM binding (in words) ([3]; typical opiate receptor antagonists): not blocked

CCN1CCC[C@H]1CNC(=O)c1c(OC)ccc(Br)c1OC [remoxipride]
affinity for sigma receptors (in words) [3]: moderate to high affinity
affinity toward PCP sites (in words) [7]: little or no affinity

C[C@@H]1CN(CCCn2c3ccccc3c3ccccc32)C[C@H](C)N1 [rimcazole]
affinity for sigma receptors (in words) [3]: moderate to high affinity
affinity toward PCP sites (in words) [7]: little or no affinity
selectivity for sigma versus dopamine D2 receptors [4]: 10 to 15 fold

O=C(CCCN1CCC2(CC1)C(=O)NCN2c1ccccc1)c1ccc(F)cc1 [spiperone]
affinity for sigma receptors (in words) [3]: not spiperone

O=C1CC2(CCCC2)CC(=O)N1CCCCN1CCN(c2nsc3ccccc23)CC1 [tiospirone]
affinity for sigma receptors (in words) [3]: moderate to high affinity

c1ccc2c(c1)CC1CCCN3CCCC2C13 (stereo not drawn) [unsubstituted (trans,trans) OHNQ]
IC50 ([12]; crude liver homogenates): 157 nM
IC50 [12, 13]: 87 nM
affinity to sigma receptors (in words) [12, 13]: high affinity
activity at D-2 receptor sites (in words) [8]: modest but selective activity
activity at 5-HT-2 receptor sites (in words) [9]: modest but selective activity

— patent US5298509A, “Octahydronaphthoquinolizines, and methods of making and using thereof” (priority 1992, dated 1994)
